Assay results taken from US20240100081A1, “COMPOSITIONS AND METHODS FOR TREATING AGE-RELATED MACULAR DEGENERATION AND GEOGRAPHIC ATROPHY” (University of Virginia Patent Foundation, priority 2017, published 2024).

Key:
[1] = system: IL-18; assay: IL-18 secretion ELISA, mouse RPE cells; type: cell-based; details: Casp11−/− and Mb21d1−/− mouse RPE cells; LPS-primed, MSU 250 μg/ml
Experimental: Secreted human and mouse interferon-β and IL-18 in the media were detected using the ELISA kits (mouse IFN-β, R&D Systems Cat #42400-1; mouse IL-18, R&D Systems Cat #7625; human IFN-β, R&D Systems Cat #41410; human IL-18, R&D systems Cat #DY318-05) according to the manufacturer's instructions. Primary mouse cells cultured as above. WT, Gsdmd^−/−, Casp11^−/−, and Mb21d1^−/− mouse RPE cells were seeded at a density of 250,000 cells/well in a 12-well plate. When confluency reached 60-70%, cells were transfected with 20 pmol of in vitro transcribed Alu RNA or mock using Lipofectamine 2000 reagent (Life Technologies, Carlsbad, CA) following the manufacturer protocol. Media was collected to detect secreted cytokine content at 8 to 24 h post-transfection. For examining the induction of IL-18 secretion by monosodium urate (MSU) crystals (Invivogen Cat #tlrl-msu), mouse RPE cells were primed with LPS (500 ng/ml) for 6 h and exposed to MSU (250 μg/ml) for 16 h, and media were collected to detect secreted cytokine.

[2] = system: RPE; details: earlier demonstration (refs 2, 21); cited from earlier work
[3] = system: caspase-1; assay: Caspase-1 activation (p20) immunoblot in human RPE cells; type: cell-based; details: lentiviral shRNA
Experimental: (§1) Cell and tissue lysates prepared in RIPA buffer where homogenized by sonication. Protein concentration was determined using Pierce BCA Protein Assay Kit (Thermo Fisher Scientific Inc.). Equal quantity of protein (10-50 μg) prepared in Laemmli buffer were resolved by SDS-PAGE on NOVEX® Tris-Glycine Gels (Invitrogen), and transferred onto Immobilon-FL PVDF membranes (Millipore). The transferred membranes were blocked in ODYSSEY® Blocking Buffer (PBS) or 5% nonfat dry skim milk for 1 hour at RT and then incubated with primary antibody at 4° C. overnight. The immunoreactive bands were visualized with help of species specific secondary antibodies conjugated with IRDYE® or HRP. The blot image were either captured on ODYSSEY® imaging systems or on an autoradiography film. […]
Lentivirus articles were either produced by the University of Kentucky Viral Production Core facilities or in house. […] Knockdown of the target proteins was determined by immunoblotting.

[4] = system: caspase-4; assay: Caspase-4 activation (p30) immunoblot in human RPE cells; type: cell-based; details: lentiviral shRNA
Experimental: as §1

[5] = system: STAT2; assay: STAT2 phosphorylation immunoblot, human RPE cells; type: cell-based; details: lentiviral shRNA
Experimental: as §1

[6] = system: IFNB mRNA; assay: IFNB mRNA real-time PCR, human RPE cells; type: cell-based; details: lentiviral shRNA
Experimental: Real-time PCR Total RNA purified from cell using Trizol reagent (Invitrogen) following manufacturer's recommendation was DNase treated and reverse transcribed using […]® Reverse Transcription kit (QIAGEN). The RT products (cDNA) were amplified by real-time quantitative PCR (Applied Biosystems 7900 HT Fast Real-Time PCR system) with Power SYBR green Master Mix. Relative gene expression was determined by 2^−ΔΔCt t method using 18S rRNA or GAPDH as internal control. Primers were used as described in the provisional patent application from which this application depends and as in Kerur et al., 2018, Nature, the publication resulting from the data in the provisional application. The primers were for human IFNB1, CASP4, DICER, cGAS, 18s rRNA, mitochondrial DNA, GAPDH, and GSDMD, MIP1α, IL6, IL8, and mouse Ifnb1, Gapdh, 18s rRNA, and mitochondrial DNA.
Lentivirus articles were either produced by the University of Kentucky Viral Production Core facilities or in house. Lentivirus vector plasmids expressing scrambled sequences or shRNA sequences targeting human caspase-4 and cGAS were purchased (MISSION®shRNA, Sigma-Aldrich) to produce lentiviral particles. Human RPE cells at passage 3 were incubated with lentiviral particles at multiplicity of infection (MOI) of 5 overnight in regular growth media containing polybrene (4 μg/ml). […] Knockdown of the target proteins was determined by immunoblotting.

[7] = target: T1, cGAS (Mus musculus, UniProt Q8C6L5); assay: cGAS-mtDNA interaction immunoprecipitation assay (HA-cGAS MEFs); type: cell-based; details: HA-cGAS reconstituted Mb21d1−/− MEFs
T1 construct: expressed in transfected cells
From the text: Immortalized cGAS^−/− mouse embryonic fibroblasts (MEF) reconstituted with HA-tagged mouse cGAS (HA-cGAS) were described earlier^28. Interaction between mtDNA and cGAS was monitored using Express Chromatin Immunoprecipitation Kit (Active Motif, CHIP-IT® Express, cat #53008). Briefly mock, Alu RNA, poly I: C or plasmid DNA (pUC19) transfected HA-cGAS reconstituted cGAS^−/− MEFs were fixed with 1% formaldehyde per manufacturer's instructions. The cells were then lysed by sonication in the shearing buffer, centrifuged for 10 min at 18,000 g in a 4° C. microfuge. The supernatant containing the cell lysate was collected and cGAS was immunoprecipitated from each sample using anti-HA tag antibody (Abcam, cat #ab9110). DNA in the IP was eluted, reverse crosslinked and purified using Chromatin IP DNA Purification Kit (Active Motif, cat #58002). Purified DNA was analyzed by qPCR using mouse mtDNA specific primer pairs.

[8] = system: RPE; assay: Alu-induced RPE degeneration in mice (subretinal injection; fundus photography, ZO-1 flat mounts); type: in vivo, mouse; details: Gsdmd−/− mice
Experimental: Alu-mediated RPE degeneration was induced by exposing mice to Alu RNA as previously described^14-18. Seven days later, RPE health was assessed by fundus photography and immunofluorescence staining of zonula occludens-1 (ZO-1) on RPE flat mounts (whole mount of posterior eye cup containing RPE and choroid layers). Mouse RPE and choroid flat mounts were fixed with 4% paraformaldehyde or 100% methanol, stained with rabbit polyclonal antibodies against mouse ZO-1 (1:100, Invitrogen), and visualized with Alexa-594 (Invitrogen). All images were obtained by microscopy (model SP-5, Leica; or Axio Observer Z1, Zeiss). Imaging was performed by an operator masked to the group assignments.
Binary Assignment: Healthy RPE cells form a polygonal tessellation with a principally hexagonal “honeycomb” formation. RPE degeneration was assessed as a disruption of this uniformity of this polygonal sheet. Thus, RPE health was assessed as the presence or absence of morphological disruption in RPE flat mounts by two independent raters who were masked to the group assignments. […] Inter-rater reliability was measured by agreement on assignments, Pearson coefficient of determination, and Fleiss κ. […]
Cellular Morphometry: Quantifying cellular morphometry for hexagonally packed cells was performed in semi-automated fashion by three masked graders by adapting our previous analysis of corneal endothelial cell density^19. […]

[9] = system: RPE; assay: RPE flat mount annexin V/PI staining in mice; details: Alu RNA-treated Gsdmd−/− mice

T1 sequence (Q8C6L5 whole entry): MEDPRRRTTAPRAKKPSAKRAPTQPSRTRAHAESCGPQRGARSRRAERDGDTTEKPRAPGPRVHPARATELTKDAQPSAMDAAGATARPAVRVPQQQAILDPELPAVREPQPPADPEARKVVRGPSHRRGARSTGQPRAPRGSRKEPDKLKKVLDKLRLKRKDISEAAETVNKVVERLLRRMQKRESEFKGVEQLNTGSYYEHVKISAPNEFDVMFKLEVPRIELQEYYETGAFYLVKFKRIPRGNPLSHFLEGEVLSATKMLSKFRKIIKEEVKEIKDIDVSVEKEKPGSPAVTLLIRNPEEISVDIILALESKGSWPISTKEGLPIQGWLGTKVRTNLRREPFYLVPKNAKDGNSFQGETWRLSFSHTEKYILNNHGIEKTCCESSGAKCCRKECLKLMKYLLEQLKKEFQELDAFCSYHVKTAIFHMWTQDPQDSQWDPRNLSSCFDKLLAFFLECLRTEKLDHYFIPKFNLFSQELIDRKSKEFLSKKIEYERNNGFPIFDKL

O=c1[nH]c(=O)c2[nH]c([O-])nc2[nH]1.[Na+] [MSU, monosodium urate]
IL-18 secretion [1]: unaffected

NCC(=O)O [glycine]
effect on Alu RNA-induced RPE degeneration [2]: neither necrostatin-1, an inhibitor of primary necrosis^39, nor glycine, an inhibitor of pyroptosis^40, blocks

CN1C(=O)C(Cc2c[nH]c3ccccc23)NC1=S (stereo not shown) [necrostatin-1]
effect on Alu RNA-induced RPE degeneration [2]: neither necrostatin-1, an inhibitor of primary necrosis^39, nor glycine, an inhibitor of pyroptosis^40, blocks

cGAS shRNA: shRNA against cGAS, Sigma-Aldrich TRCN0000150010, SEQ ID NO: 15 (guide CCGGCCTGCTGTAACACTTCTTATTCTCGAGAATAAGAAGTGTTACAGCAGGTTTTTTG; listed as Homo sapiens)
effect on Alu RNA-induced activation of caspase-1 (p20 subunit) [3]: suppressed | effect on Alu RNA-induced activation of caspase-4 (p30 subunit) [4]: suppressed | effect on Alu RNA-induced phosphorylation of STAT2 [5]: suppressed | effect on DICER1 AS-induced IFNB mRNA [6]: markedly depressed

poly(I:C)
enrichment of mtDNA in cGAS immunoprecipitate [7]: not

recIL-18: recombinant mature IL-18 (MBL Cat #B002-5)
resistance to Alu RNA-induced RPE degeneration [8]: overcome | annexin-V / PI staining of RPE flat mounts [9]: numerous annexin-V^+ PI^− cells
